The results in this text go back to US11370794B2, “Toll-like receptor antagonist compounds and methods of use” (Dynavax Technologies Corporation, priority 2016, dated 2022).

The structures appear in SMILES notation. Where two headings read alike, the source gives them in different places.

One assay has as its target T1, human TLR9 (Homo sapiens, UniProt Q9NR96).
T1 construct: endogenous in cells; host or cells: primary human B cells (CD19 microbeads) from buffy coats of healthy donors
T1 sequence (Q9NR96 26-1032): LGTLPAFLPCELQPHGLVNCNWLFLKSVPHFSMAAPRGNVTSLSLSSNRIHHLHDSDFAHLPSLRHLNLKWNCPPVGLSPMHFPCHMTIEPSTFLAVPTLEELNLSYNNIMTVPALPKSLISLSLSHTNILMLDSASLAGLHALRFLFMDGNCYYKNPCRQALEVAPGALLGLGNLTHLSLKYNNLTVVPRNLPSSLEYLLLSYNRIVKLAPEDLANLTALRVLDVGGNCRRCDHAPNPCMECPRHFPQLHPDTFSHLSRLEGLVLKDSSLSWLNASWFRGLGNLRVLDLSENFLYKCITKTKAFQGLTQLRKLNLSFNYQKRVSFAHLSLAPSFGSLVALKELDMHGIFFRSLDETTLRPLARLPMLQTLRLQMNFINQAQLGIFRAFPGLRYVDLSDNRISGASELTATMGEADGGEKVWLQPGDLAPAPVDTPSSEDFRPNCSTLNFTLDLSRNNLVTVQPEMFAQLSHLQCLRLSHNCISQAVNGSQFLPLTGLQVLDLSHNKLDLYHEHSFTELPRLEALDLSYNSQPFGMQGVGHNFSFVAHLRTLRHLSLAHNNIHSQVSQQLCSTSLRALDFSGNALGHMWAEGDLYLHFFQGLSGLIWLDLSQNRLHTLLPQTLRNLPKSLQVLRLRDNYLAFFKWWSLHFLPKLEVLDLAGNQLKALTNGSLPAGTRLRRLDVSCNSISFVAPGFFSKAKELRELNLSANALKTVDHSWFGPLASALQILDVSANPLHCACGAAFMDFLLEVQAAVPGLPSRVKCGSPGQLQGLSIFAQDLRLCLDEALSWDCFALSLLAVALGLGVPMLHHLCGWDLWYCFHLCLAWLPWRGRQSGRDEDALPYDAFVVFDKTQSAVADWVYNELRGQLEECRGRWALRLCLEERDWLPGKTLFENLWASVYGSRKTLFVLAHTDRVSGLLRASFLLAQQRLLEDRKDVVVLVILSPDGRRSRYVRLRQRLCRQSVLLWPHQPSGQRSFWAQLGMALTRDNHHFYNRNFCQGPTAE
In words: Inhibition of human TLR9 in human B cells (IL-6 ELISA). Format: cell-based. The conditions noted are these: for IC50: human B cells, agonist 1018 ISS 1 μM; for inhibits TLR9-dependent responses (in words): summary statement of the description. The gist of the method:
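Primary human B cells (CD19-isolated from donor buffy coats), ~300,000 per well, treated with compound (about 0.01–10 μM, some 0.001–30 μM) then 1 μM CpG oligonucleotide 1018 ISS. After 48 hours at 37° C, supernatant IL-6 measured by ELISA; IC50 from concentration-response of TLR9-dependent activity.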
Background: An ELISA detects its analyte on a solid surface through an enzyme-linked reagent.

A further assay deals with T2, human TLR8 (Homo sapiens, UniProt Q9NR97).
T2 construct: endogenous in cells; host or cells: primary human monocytes (CD14 microbeads) from buffy coats of healthy donors
T2 sequence (Q9NR97 27-1041): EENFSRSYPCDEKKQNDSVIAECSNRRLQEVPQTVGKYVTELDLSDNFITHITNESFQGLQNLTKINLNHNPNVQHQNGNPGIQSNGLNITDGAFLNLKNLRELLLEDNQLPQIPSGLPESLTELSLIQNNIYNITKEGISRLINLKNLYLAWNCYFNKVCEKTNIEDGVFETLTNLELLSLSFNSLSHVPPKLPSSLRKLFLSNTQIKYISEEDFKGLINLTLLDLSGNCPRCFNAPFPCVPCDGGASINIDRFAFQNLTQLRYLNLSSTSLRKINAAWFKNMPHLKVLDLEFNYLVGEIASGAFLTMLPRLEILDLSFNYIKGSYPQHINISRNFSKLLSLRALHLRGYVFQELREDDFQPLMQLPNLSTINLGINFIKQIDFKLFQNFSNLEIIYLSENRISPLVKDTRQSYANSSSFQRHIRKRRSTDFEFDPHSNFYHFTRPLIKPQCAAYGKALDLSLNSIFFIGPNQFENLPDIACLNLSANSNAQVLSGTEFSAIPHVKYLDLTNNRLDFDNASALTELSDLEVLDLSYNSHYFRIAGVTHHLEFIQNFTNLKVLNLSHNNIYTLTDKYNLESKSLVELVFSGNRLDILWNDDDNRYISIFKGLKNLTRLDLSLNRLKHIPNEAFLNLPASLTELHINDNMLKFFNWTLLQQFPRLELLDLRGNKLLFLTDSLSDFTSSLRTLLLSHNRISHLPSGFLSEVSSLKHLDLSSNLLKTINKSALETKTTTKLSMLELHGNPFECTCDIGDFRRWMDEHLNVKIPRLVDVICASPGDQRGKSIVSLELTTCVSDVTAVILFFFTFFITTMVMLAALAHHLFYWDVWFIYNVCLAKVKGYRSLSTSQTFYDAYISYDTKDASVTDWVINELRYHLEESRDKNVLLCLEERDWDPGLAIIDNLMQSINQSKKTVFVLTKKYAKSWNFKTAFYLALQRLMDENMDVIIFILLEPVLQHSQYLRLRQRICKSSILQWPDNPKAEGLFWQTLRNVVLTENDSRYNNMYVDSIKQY
In words: Inhibition of human TLR8 in human monocytes (TNF-alpha / IL-1 beta ELISA). The format is cell-based. The conditions noted are these: human monocytes, agonist ORN8L 100 μg/mL, 24 hours. Put shortly: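 Primary human monocytes from donor buffy coats (~200,000 cells/well) given serially diluted compound, then ORN8L RNA oligonucleotide agonist at 100 μg/mL final. After 24 h at 37 °C, supernatant TNF-alpha and/or IL-1 beta measured by ELISA; IC50 from the concentration-response of cytokine release.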

[1] abbreviates: IL-6 readout, 48 hours, range about 0.01 to 10 μM, read-out: Human TLR9 IC50.
The mark [2] stands for this setting: IL-1 beta readout, read-out: Human TLR8 IC50 IL-1b.
Setting [3] is: TNF-alpha readout, read-out: Human TLR8 IC50 TNF-a.

As usually defined, the IC50 is the concentration needed to halve the response being measured. As for `Cc1ccc(-n2nc3c(N4CC(C(=O)NCCCN(C)C)C4)nnc(C)c3c2C)cc1` [compound 15, 1-(3,4-dimethyl-2-(p-tolyl)-2H-pyrazolo[3,4-d]pyridazin-7-yl)-N-(3-(dimethylamino)propyl)azetidine-3-carboxamide], the IC50 at human TLR9 (setting [1]) was 0.25 µM; on human TLR8 (setting [2]), > 10 µM; at human TLR8 (setting [3]) it was > 10 µM.

Consider `Cc1ccc(-n2cc3cnnc(N4CCC(C(=O)NCCN(C)C)CC4)c3n2)cc1` [compound 46, N-(2-(dimethylamino)ethyl)-1-(2-(p-tolyl)-2H-pyrazolo[3,4-d]pyridazin-7-yl)piperidine-4-carboxamide], for which the IC50 on human TLR9 (IL-6, 48 hours, expanded dilution series about 0.001 to 30 μM, read-out: Human TLR9 IC50, expanded dilution series) was 0.01 µM; at human TLR9 (setting [1]) it was 0.002 µM; on human TLR8 (setting [3]), ≥ 20 µM. In addition, the “inhibits TLR9-dependent responses (in words)” value on human TLR9 was “inhibit”.

With `Cc1ccc(-n2nc3c(N4CCC(C(=O)NCCCN(C)C)C4)nnc(C)c3c2C)cc1` (stereo not drawn) [compound 13, 1-(3,4-dimethyl-2-(p-tolyl)-2H-pyrazolo[3,4-d]pyridazin-7-yl)-N-(3-(dimethylamino)propyl)pyrrolidine-3-carboxamide], the values for the IC50 at human TLR9 (setting [1]), on human TLR8 (setting [2]) and at human TLR8 (setting [3]) were 0.292 µM, > 10 µM and > 10 µM, respectively.

For `Cc1ccc(-n2nc3c(N4CCC(C(=O)NCCN(C)C)CC4)nnc(C)c3c2C)cc1` [Compound No. 21x, 1-(3,4-dimethyl-2-(p-tolyl)-2H-pyrazolo[3,4-d]pyridazin-7-yl)-N-(2-(dimethylamino)ethyl)piperidine-4-carboxamide], the IC50 at human TLR9 (setting [1]) is 0.004 µM; at human TLR8 (setting [2]), > 10 µM; at human TLR8 (setting [3]), > 10 µM. For the same compound, on human TLR9, the “inhibits TLR9-dependent responses (in words)” value is given as “inhibit”.

Consider `Cc1ccc(-n2nc3c(N4CCC(C(=O)NCCCCCc5ccccc5)CC4)nnc(C)c3c2C)cc1` [2-12], for which the IC50 on human TLR9 (setting [1]) was 0.427 µM; at human TLR8 (setting [2]), > 10 µM; on human TLR8 (setting [3]), > 10 µM.

In the case of `Cc1nnc(N2CCC(C(=O)NCCN3CCOCC3)CC2)c2nn(-c3ccccc3)c(C)c12` [32x, 1-(3,4-dimethyl-2-phenyl-2H-pyrazolo[3,4-d]pyridazin-7-yl)-N-(2-morpholinoethyl)piperidine-4-carboxamide], the IC50 at human TLR9 (setting [1]) was 0.341 µM; at human TLR8 (setting [2]), > 10 µM; on human TLR8 (setting [3]) it was > 10 µM.

Regarding `Cc1ccc(-n2nc3c(N4CCC(C(=O)N5CCC(CN(C)Cc6ccccc6)C5)CC4)nnc(C)c3c2C)cc1` (stereo not drawn) [compound 68, (3-((benzyl(methyl)amino)methyl)pyrrolidin-1-yl)(1-(3,4-dimethyl-2-(p-tolyl)-2H-pyrazolo[3,4-d]pyridazin-7-yl)piperidin-4-yl)methanone], the IC50 at human TLR9 (setting [1]) was found to be 0.085 µM; at human TLR8 (setting [3]) it was 1.18 µM.

With `Cc1ccc(-n2nc3c(N4CCC(C(=O)N[C@H]5C[C@H](N(C)C)C5)CC4)nnc(C)c3c2C)cc1` [Compound No. 12a, 1-(3,4-dimethyl-2-(p-tolyl)-2H-pyrazolo[3,4-d]pyridazin-7-yl)-N-((1r,3r)-3-(dimethylamino)cyclobutyl)piperidine-4-carboxamide], the results for the IC50 on human TLR9 (setting [1]), on human TLR8 (setting [2]) and at human TLR8 (setting [3]) were 0.071 µM, > 10 µM and > 10 µM, respectively.

For the compound `Cc1ccc(-n2nc3c(N4CCCC(C(=O)NCCNC(C)C)C4)nnc(C)c3c2C)cc1` (stereo not drawn) [compound 16, 1-(3,4-dimethyl-2-(p-tolyl)-2H-pyrazolo[3,4-d]pyridazin-7-yl)-N-(2-(isopropylamino)ethyl)piperidine-3-carboxamide], the results for the IC50 at human TLR9 (setting [1]) and at human TLR8 (setting [3]) were 0.046 µM and ≥ 20 µM, respectively.
